Experimental data from patent publication US20220073536A1 (Rigel Pharmaceuticals, Inc., priority 2003, published 2022).
Where a name gives a salt, the structure may show the parent alone.

Tested on: cultured human mast cells (CHMC)
Test: CHMC low cell density IgE activation: tryptase assay
Type: cell-based
Settings: Homo sapiens, Mast cell, low cell density CHMC, IgE activation, tryptase, 3 pt; read-out: LD Tryptase, CHMC, IgE, 3 pt
How it was run: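 Anti-IgE-driven degranulation of cultured human mast cells at low density, 1000–1500 cells/well, was induced over 30 min at 37 °C. It was scored by supernatant tryptase activity on a fluorogenic substrate.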

| SMILES | IC50 |
| --- | --- |
| CN1C(C)(C)CC(Nc2nc(Cl)ncc2F)CC1(C)C [Compound 1212] | > 10 µM |
| CCOC(=O)N1CCC(Nc2nc(Cl)ncc2F)CC1 [Compound 1213] | > 10 µM |
| CC(C)Nc1nc(Nc2cccc(N3CCN(C)CC3)c2)ncc1F [Compound 1214] | > 10 µM |
| CN1CCN(c2ccc(Nc3ncc(F)c(NC(C)(C)C)n3)cc2)CC1 [Compound 1215] | > 10 µM |
| CN1CCN(c2cccc(Nc3ncc(F)c(NC(C)(C)C)n3)c2)CC1 [Compound 1216] | > 10 µM |
| CN1CCN(c2ccc(Nc3ncc(F)c(NC(C)(C)C)n3)cc2Cl)CC1 [Compound 1217] | < 10 µM |
| CN1CCN(c2ccc(Nc3ncc(F)c(NC4CC(C)(C)N(C)C(C)(C)C4)n3)cc2)CC1 [Compound 1219] | > 10 µM |
| CN1CCN(c2cccc(Nc3ncc(F)c(NC4CC(C)(C)N(C)C(C)(C)C4)n3)c2)CC1 [Compound 1221] | > 10 µM |
| CN1CCN(c2ccc(Nc3ncc(F)c(NC4CC(C)(C)N(C)C(C)(C)C4)n3)cc2Cl)CC1 [Compound 1222] | > 10 µM |
| Cc1cc(Nc2ncc(F)c(NC3CC(C)(C)N(C)C(C)(C)C3)n2)ccc1N1CCN(C)CC1 [Compound 1223] | < 10 µM |
| CN1CCN(c2ccc(Nc3ncc(F)c(NC4CC(C)(C)N(C)C(C)(C)C4)n3)cc2C(F)(F)F)CC1 [Compound 1224] | > 10 µM |
| CCOC(=O)N1CCC(Nc2nc(Nc3ccc(N4CCN(C)CC4)cc3)ncc2F)CC1 [Compound 1225] | < 10 µM |
| CCOC(=O)N1CCC(Nc2nc(Nc3cccc(N4CCN(C)CC4)c3)ncc2F)CC1 [Compound 1226] | < 10 µM |
| CCOC(=O)N1CCC(Nc2nc(Nc3ccc(N4CCN(C)CC4)c(Cl)c3)ncc2F)CC1 [Compound 1227] | < 10 µM |
| CCOC(=O)N1CCC(Nc2nc(Nc3ccc(N4CCN(C)CC4)c(C)c3)ncc2F)CC1 [Compound 1228] | < 10 µM |
| CCOC(=O)N1CCC(Nc2nc(Nc3ccc(N4CCN(C)CC4)c(C(F)(F)F)c3)ncc2F)CC1 [Compound 1229] | < 10 µM |
| CCN1CCN(c2ccc(Nc3ncc(F)c(NC4CCC4)n3)cn2)CC1 [Compound 1230] | < 10 µM |
| CCN1CCN(c2ccc(Nc3ncc(F)c(NC4CCCC4)n3)cn2)CC1 [Compound 1231] | < 10 µM |
| CCN1CCN(c2ccc(Nc3ncc(F)c(NC4CCCCC4)n3)cn2)CC1 [Compound 1232] | < 10 µM |
| CN1CCN(c2ccc(Nc3ncc(F)c(NC(C)(C)C)n3)cc2C(F)(F)F)CC1 [Compound 1233] | < 10 µM |
| CCN1CCN(c2ccc(Nc3ncc(F)c(NC(C)C)n3)cn2)CC1 [Compound 1234] | < 10 µM |

| SMILES | IC50 |
| --- | --- |
| CCN1CCN(c2ccc(Nc3ncc(F)c(NC(C)(C)C)n3)cn2)CC1 [Compound 1236] | > 10 µM |
| CCN1CCN(c2ccc(Nc3ncc(F)c(NC4CC(C)(C)N(C)C(C)(C)C4)n3)cn2)CC1 [Compound 1237] | > 10 µM |
| CCOC(=O)N1CCC(Nc2nc(Nc3ccc(N4CCN(CC)CC4)nc3)ncc2F)CC1 [Compound 1238] | > 10 µM |
| Cc1cc(Nc2ncc(F)c(NC3CCC3)n2)cnc1N1CCN(C)CC1 [Compound 1239] | > 10 µM |
| Cc1cc(Nc2ncc(F)c(NC3CCCC3)n2)cnc1N1CCN(C)CC1 [Compound 1240, N4-Cyclopentyl-5-fluoro-N2-[2-(4-methylpiperazino)-3-methylpyrid-5-yl]-2,4-pyrimidinediamine] | < 10 µM |
| Cc1cc(Nc2ncc(F)c(NC3CCCCC3)n2)cnc1N1CCN(C)CC1 [Compound 1241] | < 10 µM |
| Cc1cc(Nc2ncc(F)c(NC(C)C)n2)cnc1N1CCN(C)CC1 [Compound 1242] | < 10 µM |
| Cc1cc(Nc2ncc(F)c(NC3CC(C)(C)N(C)C(C)(C)C3)n2)cnc1N1CCN(C)CC1 [Compound 1244] | > 10 µM |
| Cc1cc(N2CCN(C)CC2)ncc1Nc1ncc(F)c(NC2CCC2)n1 [Compound 1245] | > 10 µM |
| Cc1cc(N2CCN(C)CC2)ncc1Nc1ncc(F)c(NC2CCCC2)n1 [Compound 1246] | > 10 µM |
| Cc1cc(N2CCN(C)CC2)ncc1Nc1ncc(F)c(NC2CCCCC2)n1 [Compound 1247] | < 10 µM |
| Cc1cc(N2CCN(C)CC2)ncc1Nc1ncc(F)c(NC(C)C)n1 [Compound 1248] | > 10 µM |
| Cc1cc(N2CCN(C)CC2)ncc1Nc1ncc(F)c(NC2CC(C)(C)N(C)C(C)(C)C2)n1 [Compound 1249] | > 10 µM |
| Cc1cc(Nc2ncc(F)c(NC3(CO)CCCC3)n2)ccc1N1CCN(C)CC1 [Compound 1250] | < 10 µM |
| COC(=O)c1ccc(Nc2ncc(F)c(Nc3ccc(Cl)c(Cl)c3)n2)cc1 [Compound 1261] | > 10 µM |
| COC(=O)CCNC(=O)c1ccc(Nc2ncc(F)c(Nc3ccc4c(n3)NC(=O)C(C)(C)O4)n2)cc1 [Compound 1312, N4-(2,2-Dimethyl-3-oxo-4H-5-pyrid[1,4]oxazin-6-yl)-5-fluoro-N2-[4-[N-(2-methoxycarbonylethyl)aminocarbonyl]phenyl]-2,4-pyrimidinediamine] | < 10 µM |
| NC(=O)c1ccc(Nc2nc(Nc3cccc(O)c3)ncc2F)cc1 [Compound 1334] | < 10 µM |
| NC(=O)c1ccc(Nc2nc(Nc3cc(Cl)c(O)c(Cl)c3)ncc2F)cc1 [Compound 1335] | < 10 µM |
| COc1ccc(Nc2ncc(F)c(Nc3ccc(C(N)=O)cc3)n2)cc1Cl [Compound 1336] | < 10 µM |
| NC(=O)c1ccc(Nc2ncc(F)c(Nc3ccc(C(N)=O)cc3)n2)cc1 [Compound 1339] | > 10 µM |
| CN(c1ccc(Cl)c(Cl)c1)c1nc(Nc2ccc(C(N)=O)cc2)ncc1F [Compound 1346] | < 10 µM |

Same assay, conditions: Homo sapiens, Mast cell, low cell density CHMC, IgE activation, tryptase, 8 pt; read-out: LD Tryptase, CHMC, IgE, 8 pt

| SMILES | IC50 |
| --- | --- |
| Cc1cc(Nc2ncc(F)c(NC(C)(C)C)n2)ccc1N1CCN(C)CC1 [Compound 1218] | < 10 µM |
| Cc1cc(Nc2ncc(F)c(NC3CCC3)n2)ccc1N1CCN(C)CC1 [Compound 1220] | < 10 µM |
| CN1CCN(c2ccc(Nc3ncc(F)c(NC4CCC4)n3)cc2CO)CC1 [Compound 1235] | > 10 µM |
| Cc1cc(C)cc(Nc2ncc(F)c(Nc3nc(N)n[nH]3)n2)c1 [Compound 1252] | > 10 µM |
| COc1ccc(Nc2ncc(F)c(Nc3n[nH]c(N)n3)n2)cc1Cl [Compound 1253] | > 10 µM |
| Nc1nc(Nc2nc(Nc3ccc(Cl)c(Cl)c3)ncc2F)n[nH]1 [Compound 1254] | > 10 µM |
| COC(=O)c1ccc(Nc2ncc(F)c(Nc3ccc4c(c3)NC(=O)[C@H](C)O4)n2)cc1 [Compound 1263] | < 10 µM |
| C[C@H]1Oc2ccc(Nc3nc(Nc4ccc(C(N)=O)cc4)ncc3F)cc2NC1=O [Compound 1265] | < 10 µM |
| COC(=O)c1ccc(Nc2ncc(F)c(Nc3ccc4c(c3)NC(=O)[C@@H](C)O4)n2)cc1 [Compound 1266] | < 10 µM |
| COC(=O)c1ccc(Nc2ncc(F)c(Nc3ccc(OC)c(Cl)c3)n2)cc1 [Compound 1322] | < 10 µM |
| NC(=O)c1ccc(Nc2nc(Cl)ncc2F)cc1 [Compound 1327] | > 10 µM |
| NC(=O)c1ccc(Nc2nc(Nc3cccc(O)c3)ncc2F)cc1 [Compound 1334] | < 10 µM |
| NC(=O)c1ccc(Nc2nc(Nc3cc(Cl)c(O)c(Cl)c3)ncc2F)cc1 [Compound 1335] | < 10 µM |
| COc1ccc(Nc2ncc(F)c(Nc3ccc(C(N)=O)cc3)n2)cc1Cl [Compound 1336] | < 10 µM |
| NC(=O)c1ccc(Nc2ncc(F)c(Nc3ccc(C(N)=O)cc3)n2)cc1 [Compound 1339] | > 10 µM |

Same assay, conditions: low cell density CHMC, IgE activation, tryptase, 3 pt; read-out: LD Tryptase, CHMC, IgE, 3 pt

| SMILES | IC50 |
| --- | --- |
| CN1CCN(c2ccc(Nc3ncc(F)c(Nc4cc(C5CC5)n[nH]4)n3)cc2C(F)(F)F)CC1 [Compound 1211] | < 10 µM |
| CN1CCN(c2ccc(Nc3ncc(F)c(NC4CCC4)n3)cc2CO)CC1 [Compound 1243, N4-Cyclobutyl-5-fluoro-N2-[3-hydroxymethyl-4-(4-methylpiperazino)phenyl]-2,4-pyrimidinediamine Bishydrogen chloride salt] | < 10 µM |
| Cc1cc(C)cc(Nc2ncc(F)c(NCC3COc4ccccc4O3)n2)c1 (stereo not shown) [Compound 1256, N4-[ (2,3-Dihydro-1,4-benzodioxan-2-yl)methyl]-N2-(3,5-dimethylphenyl)-5-fluoro-2,4-pyrimidinediamine] | < 10 µM |
| COc1cc(Nc2ncc(F)c(NCC3COc4ccccc4O3)n2)cc(OC)c1 (stereo not shown) [Compound 1258, N4-[ (2,3-Dihydro-1,4-benzodioxan-2-yl)methyl]-N2-(3,5-dimethoxyphenyl)-5-fluoro-2,4-pyrimidinediamine] | < 10 µM |
| COc1ccc(Nc2ncc(F)c(NCC3COc4ccccc4O3)n2)cc1Cl (stereo not shown) [Compound 1259, N2-(3-Chloro-4-methoxyphenyl)-N4-[ (2,3-dihydro-1,4-benzodioxan-2-yl)methyl]-5-fluoro-2,4-pyrimidinediamine] | < 10 µM |
| C[C@H]1Oc2ccc(Nc3nc(Nc4cccc(CN)c4)ncc3F)cc2NC1=O [Compound 1280] | < 10 µM |
| COC(=O)CNC(=O)c1ccc(Nc2ncc(F)c(Nc3ccc(OCc4nc(C)no4)cc3)n2)cc1 [Compound 1342, 5-Fluoro-N2-(4-[N-[methoxycarbonylmethylene]aminocarbonyl]phenyl)-N4-(4-[3-methyl-1,2,4-oxadiazol-5-yl]methyleneoxyphenyl)-2,4-pyrimidinediamine] | < 10 µM |
| CCN(CC)CCNC(=O)c1ccc(Nc2ncc(F)c(N(C)c3ccc(Cl)c(Cl)c3)n2)cc1 [Compound 1347, N2-(4-[2-[N,N-Diethylamino]ethyleneaminocarbonyl]phenyl)-N4-(3,4-dichlorophenyl)-5-fluoro-N4-methyl-2,4-pyrimidinediamine] | < 10 µM |

Same assay, conditions: low cell density CHMC, IgE activation, tryptase, 8 pt; read-out: LD Tryptase, CHMC, IgE, 8 pt

| SMILES | IC50 |
| --- | --- |
| CNC(=O)COc1cccc(Nc2ncc(F)c(NCC3COc4ccccc4O3)n2)c1 (stereo not shown) [Compound 1257, N4-[ (2,3-Dihydro-1,4-benzodioxan-2-yl)methyl]-5-fluoro-N2-[3-(N-methylamino)carbonylmethyleneoxyphenyl]-2,4-pyrimidinediamine] | < 10 µM |
| Fc1cnc(Nc2ccc3cn[nH]c3c2)nc1NCC1COc2ccccc2O1 (stereo not shown) [Compound 1260, N4-[ (2,3-Dihydro-1,4-benzodioxan-2-yl)methyl]-5-fluoro-N2-(indazol-6-yl)-2,4-pyrimidinediamine] | < 10 µM |
| C[C@H]1Oc2ccc(Nc3nc(Nc4cccc(CN)c4)ncc3F)cc2NC1=O [Compound 1280] | < 10 µM |
| CNC(=O)CNC(=O)c1ccc(Nc2ncc(F)c(Nc3ccc(OC)c(Cl)c3)n2)cc1 [Compound 1325] | < 10 µM |
| COC(=O)CNC(=O)c1ccc(Nc2ncc(F)c(Nc3ccc(OCc4nc(C)no4)cc3)n2)cc1 [Compound 1342, 5-Fluoro-N2-(4-[N-[methoxycarbonylmethylene]aminocarbonyl]phenyl)-N4-(4-[3-methyl-1,2,4-oxadiazol-5-yl]methyleneoxyphenyl)-2,4-pyrimidinediamine] | < 10 µM |
